Measured values published in ChEMBL document CHEMBL3817833, “Synthesis and evaluation of antitubercular activity of fluorinated 5-aryl-4-(hetero)aryl substituted pyrimidines” (Bioorg Med Chem, 2016).
In brackets after ≈: the same amount, converted by molar mass.

Tests used:
[1] = tested on: Mycolicibacter terrae; test: Antimycobacterial activity against Mycobacterium terrae after […] by microbroth dilution method; assay type: functional
[2] = tested on: Mycobacterium avium; test: Antimycobacterial activity against Mycobacterium avium after […] by microbroth dilution method; assay type: functional
[3] = tested on: Mycobacterium tuberculosis; test: Antimycobacterial activity against Mycobacterium tuberculosis H37Rv after […] by microbroth dilution method; assay type: functional
[4] = Acute toxicity in po dosed mouse administered as single dose measured after 14 days; assay type: organism-based; settings: in vivo
[5] = Acute toxicity in po dosed mouse; assay type: organism-based; settings: in vivo

SMILES	MIC [1]	MIC [2]	MIC [3]	LD50 at 336 h [4]	LD50 [5]
Fc1cc(F)cc(-c2cncnc2)c1	3.64 µM (≈ 0.699 µg/mL)	3.64 µM (≈ 0.699 µg/mL)	3.64 µM (≈ 0.699 µg/mL)	300 mg/kg	–
CC1COc2c(N3CCN(C)CC3)c(F)cc3c(=O)c(C(=O)O)cn1c23 (stereo not given) [OFLOXACIN]	0.28 µM (≈ 0.101 µg/mL)	0.28 µM (≈ 0.101 µg/mL)	0.28 µM (≈ 0.101 µg/mL)	–	5450 mg/kg
FC(F)(F)c1ccc(-c2cncnc2-c2cccs2)c(C(F)(F)F)c1	16.6 µM (≈ 6.2 µg/mL)	16.6 µM (≈ 6.2 µg/mL)	16.6 µM (≈ 6.2 µg/mL)	–	–
Fc1ccccc1-c1cncnc1-c1ccco1	52 µM (≈ 12.5 µg/mL)	52 µM (≈ 12.5 µg/mL)	52 µM (≈ 12.5 µg/mL)	–	–
Fc1ccc(-c2cncnc2)cc1	71.8 µM (≈ 12.5 µg/mL)	71.8 µM (≈ 12.5 µg/mL)	71.8 µM (≈ 12.5 µg/mL)	–	–
FC(F)(F)c1ccccc1-c1cncnc1-c1cccs1	20.2 µM (≈ 6.2 µg/mL)	20.2 µM (≈ 6.2 µg/mL)	20.2 µM (≈ 6.2 µg/mL)	–	–
Fc1cccc(-c2cncnc2-c2cccs2)c1	12.5 µM (≈ 3.2 µg/mL)	12.5 µM (≈ 3.2 µg/mL)	48.8 µM (≈ 12.5 µg/mL)	–	–
FC(F)(F)c1cccc(-c2cncnc2)c1	55.8 µM (≈ 12.5 µg/mL)	55.8 µM (≈ 12.5 µg/mL)	55.8 µM (≈ 12.5 µg/mL)	–	–
c1ccc(-c2cncnc2)cc1	80 µM (≈ 12.5 µg/mL)	80 µM (≈ 12.5 µg/mL)	80 µM (≈ 12.5 µg/mL)	–	–
FC(F)(F)c1cc(-c2cncnc2)cc(C(F)(F)F)c1	5.13 µM (≈ 1.5 µg/mL)	5.13 µM (≈ 1.5 µg/mL)	5.13 µM (≈ 1.5 µg/mL)	–	–
NC(=O)c1cnccn1 [PYRAZINAMIDE]	–	–	102 µM (≈ 12.5 µg/mL)	–	–
FC(F)(F)c1ccccc1-c1cncnc1	27.7 µM (≈ 6.2 µg/mL)	27.7 µM (≈ 6.2 µg/mL)	27.7 µM (≈ 6.2 µg/mL)	–	–
Fc1ccc(-c2cncnc2-c2ccco2)cc1	52 µM (≈ 12.5 µg/mL)	52 µM (≈ 12.5 µg/mL)	52 µM (≈ 12.5 µg/mL)	–	–
FC(F)(F)c1cc(-c2cncnc2-c2cccs2)cc(C(F)(F)F)c1	33.4 µM (≈ 12.5 µg/mL)	33.4 µM (≈ 12.5 µg/mL)	33.4 µM (≈ 12.5 µg/mL)	–	–
FC(F)(F)c1ccc(-c2cncnc2-c2ccco2)c(C(F)(F)F)c1	0.98 µM (≈ 0.351 µg/mL)	1.95 µM (≈ 0.699 µg/mL)	1.95 µM (≈ 0.699 µg/mL)	600 mg/kg	–
NNC(=O)c1ccncc1 [ISONIAZID]	0.73 µM (≈ 0.1 µg/mL)	0.73 µM (≈ 0.1 µg/mL)	0.73 µM (≈ 0.1 µg/mL)	–	–
FC(F)(F)c1ccc(-c2cncnc2)c(C(F)(F)F)c1	42.8 µM (≈ 12.5 µg/mL)	42.8 µM (≈ 12.5 µg/mL)	42.8 µM (≈ 12.5 µg/mL)	–	–
FC(F)(F)c1ccccc1-c1cncnc1-c1ccco1	43.1 µM (≈ 12.5 µg/mL)	43.1 µM (≈ 12.5 µg/mL)	43.1 µM (≈ 12.5 µg/mL)	–	–

SMILES	MIC [1]	MIC [2]	MIC [3]	LD50 at 336 h [4]	LD50 [5]
Fc1ccc(-c2cncnc2-c2cccs2)cc1	12.5 µM (≈ 3.2 µg/mL)	12.5 µM (≈ 3.2 µg/mL)	48.8 µM (≈ 12.5 µg/mL)	–	–
c1ccc(-c2cncnc2-c2ccco2)cc1	1.57 µM (≈ 0.349 µg/mL)	1.57 µM (≈ 0.349 µg/mL)	1.57 µM (≈ 0.349 µg/mL)	150 mg/kg	–
Fc1ccc(-c2cncnc2-c2cccs2)c(F)c1	45.6 µM (≈ 12.5 µg/mL)	45.6 µM (≈ 12.5 µg/mL)	45.6 µM (≈ 12.5 µg/mL)	–	–
FC(F)(F)c1ccc(-c2cncnc2-c2cccs2)cc1	40.8 µM (≈ 12.5 µg/mL)	40.8 µM (≈ 12.5 µg/mL)	40.8 µM (≈ 12.5 µg/mL)	–	–
FC(F)(F)c1cccc(-c2cncnc2-c2ccco2)c1	43.1 µM (≈ 12.5 µg/mL)	43.1 µM (≈ 12.5 µg/mL)	43.1 µM (≈ 12.5 µg/mL)	–	–
Fc1cc(F)cc(-c2cncnc2-c2cccs2)c1	45.6 µM (≈ 12.5 µg/mL)	45.6 µM (≈ 12.5 µg/mL)	45.6 µM (≈ 12.5 µg/mL)	–	–
Fc1cccc(-c2cncnc2-c2ccco2)c1	6.24 µM (≈ 1.5 µg/mL)	6.24 µM (≈ 1.5 µg/mL)	6.24 µM (≈ 1.5 µg/mL)	–	–
FC(F)(F)c1cccc(-c2cncnc2-c2cccs2)c1	4.9 µM (≈ 1.5 µg/mL)	4.9 µM (≈ 1.5 µg/mL)	4.9 µM (≈ 1.5 µg/mL)	–	–
Fc1cccc(-c2cncnc2)c1	35.9 µM (≈ 6.25 µg/mL)	35.9 µM (≈ 6.25 µg/mL)	35.9 µM (≈ 6.25 µg/mL)	–	–
Fc1cc(F)cc(-c2cncnc2-c2ccco2)c1	24 µM (≈ 6.2 µg/mL)	24 µM (≈ 6.2 µg/mL)	24 µM (≈ 6.2 µg/mL)	–	–
Fc1ccccc1-c1cncnc1	71.8 µM (≈ 12.5 µg/mL)	71.8 µM (≈ 12.5 µg/mL)	71.8 µM (≈ 12.5 µg/mL)	–	–
FC(F)(F)c1ccc(-c2cncnc2)cc1	55.8 µM (≈ 12.5 µg/mL)	55.8 µM (≈ 12.5 µg/mL)	55.8 µM (≈ 12.5 µg/mL)	–	–
FC(F)(F)c1ccc(-c2cncnc2-c2ccco2)cc1	43.1 µM (≈ 12.5 µg/mL)	43.1 µM (≈ 12.5 µg/mL)	43.1 µM (≈ 12.5 µg/mL)	–	–
Fc1ccc(-c2cncnc2-c2ccco2)c(F)c1	48.4 µM (≈ 12.5 µg/mL)	48.4 µM (≈ 12.5 µg/mL)	48.4 µM (≈ 12.5 µg/mL)	–	–
c1ccc(-c2cncnc2-c2cccs2)cc1	26 µM (≈ 6.2 µg/mL)	26 µM (≈ 6.2 µg/mL)	26 µM (≈ 6.2 µg/mL)	–	–
Fc1ccc(-c2cncnc2)c(F)c1	16.1 µM (≈ 3.1 µg/mL)	16.1 µM (≈ 3.1 µg/mL)	16.1 µM (≈ 3.1 µg/mL)	–	–
FC(F)(F)c1cc(-c2cncnc2-c2ccco2)cc(C(F)(F)F)c1	8.65 µM (≈ 3.1 µg/mL)	8.65 µM (≈ 3.1 µg/mL)	8.65 µM (≈ 3.1 µg/mL)	–	–
Fc1ccccc1-c1cncnc1-c1cccs1	12.5 µM (≈ 3.2 µg/mL)	12.5 µM (≈ 3.2 µg/mL)	48.8 µM (≈ 12.5 µg/mL)	–	–
